Assays:
[1] = Crystal observation time (nucleation time) assay in model bile; settings: for effect on nucleation time versus control solution: 20% of NaTC replaced by the specific conjugate
Protocol: Aliquots from each model bile were examined daily by polarized light microscopy. COT was defined as the initial time of detection of at least three cholesterol monohydrate crystals per microscopic field at 100 fold magnification.
Cholesterol 15 mM, EYL 30 ml, NaTC 150 mL. […] In the test solutions 20 mole percent of NaTC was replaced by an equimolar amount of each specific fatty acid/bile acid conjugate tested.

[2] = fed regularly to humans; cited from earlier work
[3] = Cholesterol crystal appearance in pooled native human gallbladder bile; settings: 10 mM test compound; 37° C.; incubation period of 21 days; control bile showed crystals from day 2
Protocol: Native human gallbladder bile was obtained from cholesterol gallstone patients at cholecystectomy. Pooled bile from several patients was cholesterol enriched by incubation with dried cholesterol or by mixing with a concentrated model bile prior to use in experiments in order to facilitate crystallization.
When the test compound (at a concentration of 10 mM) was incubated with pooled native human gallbladder bile from patients with cholesterol gallstones, the results were as follows:
In the native human bile, from which cholesterol crystals were removed by prior ultracentrifugation for 2 hours, new cholesterol crystals were observed from day 2 of incubation (at 37° C.). Crystal numbers increased progressively reaching a peak of more than 150 crystals per microscopic field on day 14.

[4] = Cholesterol crystal mass in model bile
Protocol: (§1) EYL, cholesterol and Na-TC mixtures were dissolved in CHCl3/CH3OH (2:1 v/v), dried under N2 at room temperature, lyophilized overnight and kept at −20°C. under argon until used. Model bile solutions were prepared by suspending the dried lipids in 150 mM NaCl, 1.5 mM disodium EDTA, 50 mM Tris-HCl pH 8.0 and incubating the suspension at 55° C. for 1 hour. The solubilized model biles were incubated, in sealed vials under argon, at 37° C. for the duration of the experiment. Aliquots from the models were examined daily.
Chemical analyses of cholesterol were performed on each sample on the last day of the experiment (day 14), as previously described (G. J. Somjen see above). The samples were collected from the micro wells, centrifuged in an Airfuge (Beckman) at 70,000 rpm for 5 min. Separate determinations were performed on the total sample (before centrifugation) as well as on the supernatant solution. The amount of cholesterol in the precipitated pellets was calculated by subtracting the amounts in the supernatant solutions from the total. […] The crystal mass was also measured spectrophotometrically as the OD difference between day 0 and day 14 of the incubation.
Cholesterol 15 mM, EYL […]. […]
All samples were incubated at 37° C. for 100 hrs. The difference in the optical density between 100 hrs. and 0 hrs.

[5] = Oral PalC in hamsters, TLC of gallbladder bile; type: in vivo; settings: per os 10-15 mg/animal/day
Protocol: Male, 6-7 weeks old hamsters weighing 79-83 g were maintained in an animal house with ad libidum access to water and chow.
Test hamsters were given per os by a special syringe 10-15 mg/animal/day of PalC dissolved in 1 ml of saline. Control animals were given an equivalent volume of saline alone. […] On the second day 4 hours after the application of the PalC in saline to the respective animals they were killed by an overdose of chloroform vapors. The abdomens were opened, the bile ducts were tied up, the gallbladders were excised and rinsed twice in saline. They were then placed on the top of conical plastic tubes and incised. The bile was collected at the bottom of the tubes.
Bile samples were centrifuged (Eppendorf centrifuge) for 5 min. at 2000 rpm. Debris was discarded and the supernatant was extracted according to the Folch procedure (chloroform: methanol 2:1). After partition with water, the lipid phase was analyzed by thin layer chromatography on silica gel 60 thin layer plates (Merck). The eluent was dichloromethane:methanol:acetic acid (100:5:1, v:v:v). Samples were compared with a true standard, Reference front (Rf) about 0.2 after development with I2 vapors.

[6] = Crystal growth rate (CGR) assay in model bile
Protocol: as §1
Crystal growth was monitored spectrophotometrically using a microplate reader (SPECTRA-STL, Austria) (G. J. Somjen, et al., J. Lipid Res., 38, […] 1048-1052). Aliquots (50 μl) of lipid solutions were mixed and shaken vigorously with equivalent volumes of Na-taurodeoxycholate (200 mM), in microplate wells. After 60 minutes at room temperature, the microplates were shaken again and the absorbance, at 405 nm, in each well was measured. Each model was prepared in triplicate and sampled in duplicate for measurement.
The data were collected and analyzed by an IBM compatible personal computer, and the optical density (OD), averaged for triplicate preparations, was calculated. A graph describing the averaged OD changes for each solution was plotted. The slope in the steepest region of the curve was determined by a linear regression fit to at least three measurements and defined as the CGR. CGR and OD differences between day 0 and day 14 were calculated for each model.

[7] = 20% of Na taurocholate replaced by test compound, vs control model bile
[8] = test compound added to whole model bile at 20% of bile salts (F)
[9] = 10% of NaTC replaced by PalC (B)

For `CCCCCCCCCCCCCCCCCC(=O)N[C@H]1CC[C@@]2(C)[C@@H](C1)C[C@@H](NC(=O)CCCCCCCCCCCCCCCCC)[C@@H]1[C@@H]2CC[C@]2(C)[C@@H]([C@H](C)CCC(=O)O)CC[C@@H]12` [distearoyl ursodeoxycholate, 3β,7α-Distearylamido-5β-ursodeoxycholan-24-oic Acid], the “retardation of cholesterol crystallization (nucleation time) versus control model bile and equimolar cholic acid” value ([1]; 20 mole % of NaTC replaced, 37° C.) was “particularly effective”.
For `C[C@H](CCC(=O)O)[C@H]1CC[C@H]2[C@@H]3[C@@H](O)C[C@@H]4C[C@H](O)CC[C@]4(C)[C@H]3CC[C@]12C` [ursodeoxycholic acid], the “share of biliary bile acids” value [2] is listed as 30-50%.
In the case of `CCCCCCCCCCCCCCCC(=O)N[C@H]1CC[C@@]2(C)[C@@H](C1)C[C@@H](O)[C@@H]1[C@@H]2C[C@H](O)[C@]2(C)[C@@H]([C@H](C)CCC(=O)O)CC[C@@H]12` [PalC, 3β-Palmitylamido-7α,12α-dihydroxy-5β-cholan-24-oic Acid], the “new cholesterol crystals during incubation” value [3] is reported as “no cholesterol crystals were seen”, the “nucleation time (crystal observation time) prolonged by” value [1, 7] is reported as 167% and the “effect on nucleation time versus control solution” value [1] is reported as “prolongation of the nucleation time”. The “nucleation time (crystal observation time) prolonged by” value [1, 8] was 200%, the “cholesterol mass on day 14 reduced by” value [4, 9] was 17% and the “total cholesterol crystal mass reduced by” value ([4]; 20% of Na taurocholate replaced by test compound, 14 days of incubation) was 53%. For the same molecule, the “total crystal mass reduced by” value ([4]; test compound added to whole model bile at 20% of bile salts (F), 14 days of incubation) was 51%, the “behaviour of animals in the course of treatment” value [5] was “behaved normally” and the “presence in gallbladder bile by TLC (absorbed and excreted into bile)” value ([5]; bile taken on second day 4 hours after application) was “presence of PalC in the bile”. For the same molecule, the “crystal growth rate reduced by” value [6, 9] was 70%, the “cholesterol crystal growth rate reduced by” value ([6]; 20% of Na taurocholate replaced by test compound) was 67% and the “cholesterol crystal growth rate reduced by” value [6, 8] was 59%.
With `CCCCCCCCCCCCCC(=O)N[C@H]1CC[C@@]2(C)[C@@H](C1)C[C@@H](O)[C@@H]1[C@@H]2C[C@H](O)[C@]2(C)[C@@H]([C@H](C)CCC(=O)O)CC[C@@H]12` [Example C14, 3β-Myristylamido-7α,12α-dihydroxy-5β-cholan-24-oic Acid] the “effect on nucleation time versus control solution” value [1] was “did not prolong the nucleation time”.
For `CCCCCCCCCCCCCCCCCCCC(=O)N[C@H]1CC[C@@]2(C)[C@@H](C1)C[C@@H](O)[C@@H]1[C@@H]2C[C@H](O)[C@]2(C)[C@@H]([C@H](C)CCC(=O)O)CC[C@@H]12` [C20 conjugate, 3β-Arachidylamido-7α,12α-dihydroxy-5β-cholan-24-oic Acid], the “nucleation time (crystal observation time) prolonged by” value [1, 7] was “more than 360%”, the “effect on nucleation time versus control solution” value [1] was “prolongation of the nucleation time” and the “final cholesterol crystal mass, % of the control” value ([4]; 20 mole percent of NaTC replaced, 14 days of incubation) was 38%.

Reference: patent publication US6589946B2, “Bile salt conjugates” (Galmed International Limited, priority 1998, dated 2003)
